# Measured values: ChEMBL document CHEMBL1147974, “Metabolic activation of indole-containing prostaglandin D2 receptor 1 antagonists: impacts of glutathione trapping and glucuronide conjugation on covalent binding” (Bioorg Med Chem Lett, 2007)
# Tested on: Liver microsomes
# Experiment: Covalent binding in rat liver microsomes at 10 uM after 1 hr
# Type: ADME, Microsome
# Conditions: not given
row,Activity [pmol/mg],SMILES
1,290,CC(=O)c1cc(F)cc2c3c(n(Cc4ccc(Cl)cc4)c12)[C@@H](CC(=O)O)CC3
2,23,CC(=O)c1cc(S(C)(=O)=O)cc2c3c(n(Cc4ccc(Cl)cc4)c12)[C@@H](CC(=O)O)CC3
3,460,O=C(O)C[C@H]1CCc2c1n(Cc1ccc(Cl)cc1)c1c(Br)cc(F)cc21

# Tested on: Liver microsomes
# Experiment: Covalent binding in rat liver microsomes after 60 mins assessed as GSH adduct formation
# Type: ADME, Microsome
# Conditions: 1 h
row,Activity [%],SMILES
1,41,CC(=O)c1cc(F)cc2c3c(n(Cc4ccc(Cl)cc4)c12)[C@@H](CC(=O)O)CC3
2,< 0.5,CC(=O)c1cc(S(C)(=O)=O)cc2c3c(n(Cc4ccc(Cl)cc4)c12)[C@@H](CC(=O)O)CC3
3,22,O=C(O)C[C@H]1CCc2c1n(Cc1ccc(Cl)cc1)c1c(Br)cc(F)cc21

# Tested on: Liver microsomes
# Experiment: Covalent binding in human liver microsomes at 10 uM after 1 hr
# Type: ADME, Microsome
# Conditions: not given
row,Activity [pmol/mg],SMILES
1,46,CC(=O)c1cc(F)cc2c3c(n(Cc4ccc(Cl)cc4)c12)[C@@H](CC(=O)O)CC3
2,18,CC(=O)c1cc(S(C)(=O)=O)cc2c3c(n(Cc4ccc(Cl)cc4)c12)[C@@H](CC(=O)O)CC3
3,33,O=C(O)C[C@H]1CCc2c1n(Cc1ccc(Cl)cc1)c1c(Br)cc(F)cc21

# Tested on: Liver microsomes
# Experiment: Covalent binding in human liver microsomes after 60 mins assessed as GSH adduct formation
# Type: ADME, Microsome
# Conditions: 1 h
row,Activity [%],SMILES
1,15,CC(=O)c1cc(F)cc2c3c(n(Cc4ccc(Cl)cc4)c12)[C@@H](CC(=O)O)CC3
2,< 0.5,CC(=O)c1cc(S(C)(=O)=O)cc2c3c(n(Cc4ccc(Cl)cc4)c12)[C@@H](CC(=O)O)CC3
3,5,O=C(O)C[C@H]1CCc2c1n(Cc1ccc(Cl)cc1)c1c(Br)cc(F)cc21

# Tested on: Hepatocyte
# Experiment: Covalent binding in human hepatocytes at 10 uM after 1 hr
# Type: ADME, cell-based
# Conditions: not given
row,Activity [pmol/mg],SMILES
1,16,CC(=O)c1cc(F)cc2c3c(n(Cc4ccc(Cl)cc4)c12)[C@@H](CC(=O)O)CC3
2,5,CC(=O)c1cc(S(C)(=O)=O)cc2c3c(n(Cc4ccc(Cl)cc4)c12)[C@@H](CC(=O)O)CC3
3,33,O=C(O)C[C@H]1CCc2c1n(Cc1ccc(Cl)cc1)c1c(Br)cc(F)cc21

# Tested on: Hepatocyte
# Experiment: Covalent binding in rat hepatocytes at 10 uM after 1 hr
# Type: ADME, cell-based
# Conditions: not given
row,Activity [pmol/mg],SMILES
1,45,CC(=O)c1cc(F)cc2c3c(n(Cc4ccc(Cl)cc4)c12)[C@@H](CC(=O)O)CC3
2,8,CC(=O)c1cc(S(C)(=O)=O)cc2c3c(n(Cc4ccc(Cl)cc4)c12)[C@@H](CC(=O)O)CC3
3,74,O=C(O)C[C@H]1CCc2c1n(Cc1ccc(Cl)cc1)c1c(Br)cc(F)cc21
